Key:
Experiment in all cases: Cell proliferation assay (ATPlite), drug with vs without cobicistat
Type in all cases: cell-based
769-P = 769-P cell line; 120 hours incubation
How it was run: (§1)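 Growth inhibition assay: cells (200–3200/well) pre-incubated 24 h, exposed 120 h to compound at 3.16×10^−5–3.16×10^−9 M with 0.4% DMSO throughout. Viability by ATPlite luminescence; IC50 from %-growth curve fitting.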

A-172 = A-172 cell line; 120 hours incubation
How it was run: as §1

A375 = A375 cell line; 120 hours incubation
How it was run: as §1

ACHN = ACHN cell line; 120 hours incubation
How it was run: as §1

AN3 CA = AN3 CA cell line; 120 hours incubation
How it was run: as §1

AU-565 = AU-565 cell line; 120 hours incubation
How it was run: as §1

AsPC-1 = AsPC-1 cell line; 120 hours incubation
How it was run: as §1

BT-20 = BT-20 cell line; 120 hours incubation
How it was run: as §1

C-33 A = C-33 A cell line; 120 hours incubation
How it was run: as §1

CAL 27 = CAL 27 cell line; 120 hours incubation
How it was run: as §1

CCRF-CEM = CCRF-CEM cell line; 120 hours incubation
How it was run: as §1

DU 145 = DU 145 cell line; 120 hours incubation
How it was run: as §1

HCT 116 = HCT 116 cell line; 120 hours incubation
How it was run: as §1

HCT-15 = HCT-15 cell line; 120 hours incubation
How it was run: as §1

J82 = J82 cell line; 120 hours incubation
How it was run: as §1

KU812 = KU812 cell line; 120 hours incubation
How it was run: as §1

LNCaP FGC = LNCaP FGC cell line; 120 hours incubation
How it was run: as §1

LoVo = LoVo cell line; 120 hours incubation
How it was run: as §1

MCF7 = MCF7 cell line; 120 hours incubation
How it was run: as §1

MG-63 = MG-63 cell line; 120 hours incubation
How it was run: as §1

NCI-H82 = NCI-H82 cell line; 120 hours incubation
How it was run: as §1

RT4 = RT4 cell line; 120 hours incubation
How it was run: as §1

SJCRH30 = SJCRH30 cell line; 120 hours incubation
How it was run: as §1

SK-N-FI = SK-N-FI cell line; 120 hours incubation
How it was run: as §1

SNU-C2B = SNU-C2B cell line; 120 hours incubation
How it was run: as §1

SW480 = SW480 cell line; 120 hours incubation
How it was run: as §1

SW48 = SW48 cell line; 120 hours incubation
How it was run: as §1

SW620 = SW620 cell line; 120 hours incubation
How it was run: as §1

U-87 MG = U-87 MG cell line; 120 hours incubation
How it was run: as §1

VA-ES-BJ = VA-ES-BJ cell line; 120 hours incubation
How it was run: as §1

| Compound | Fold change in IC50 (IC50 [Drug + Cobicistat]/IC50 [Drug]) (769-P) [fold] | Fold change in IC50 (IC50 [Drug + Cobicistat]/IC50 [Drug]) (A-172) [fold] | Fold change in IC50 (IC50 [Drug + Cobicistat]/IC50 [Drug]) (A375) [fold] | Fold change in IC50 (IC50 [Drug + Cobicistat]/IC50 [Drug]) (ACHN) [fold] | Fold change in IC50 (IC50 [Drug + Cobicistat]/IC50 [Drug]) (AN3 CA) [fold] | Fold change in IC50 (IC50 [Drug + Cobicistat]/IC50 [Drug]) (AU-565) [fold] | Fold change in IC50 (IC50 [Drug + Cobicistat]/IC50 [Drug]) (AsPC-1) [fold] | Fold change in IC50 (IC50 [Drug + Cobicistat]/IC50 [Drug]) (BT-20) [fold] | Fold change in IC50 (IC50 [Drug + Cobicistat]/IC50 [Drug]) (C-33 A) [fold] | Fold change in IC50 (IC50 [Drug + Cobicistat]/IC50 [Drug]) (CAL 27) [fold] | Fold change in IC50 (IC50 [Drug + Cobicistat]/IC50 [Drug]) (CCRF-CEM) [fold] | Fold change in IC50 (IC50 [Drug + Cobicistat]/IC50 [Drug]) (DU 145) [fold] | Fold change in IC50 (IC50 [Drug + Cobicistat]/IC50 [Drug]) (HCT 116) [fold] | Fold change in IC50 (IC50 [Drug + Cobicistat]/IC50 [Drug]) (HCT-15) [fold] | Fold change in IC50 (IC50 [Drug + Cobicistat]/IC50 [Drug]) (J82) [fold] | Fold change in IC50 (IC50 [Drug + Cobicistat]/IC50 [Drug]) (KU812) [fold] | Fold change in IC50 (IC50 [Drug + Cobicistat]/IC50 [Drug]) (LNCaP FGC) [fold] | Fold change in IC50 (IC50 [Drug + Cobicistat]/IC50 [Drug]) (LoVo) [fold] | Fold change in IC50 (IC50 [Drug + Cobicistat]/IC50 [Drug]) (MCF7) [fold] | Fold change in IC50 (IC50 [Drug + Cobicistat]/IC50 [Drug]) (MG-63) [fold] | also measured |
| --- | --- | --- | --- | --- | --- | --- | --- | --- | --- | --- | --- | --- | --- | --- | --- | --- | --- | --- | --- | --- | --- |
| CC(=O)O[C@H]1C(=O)[C@@]2(C)[C@H]([C@H](OC(=O)c3ccccc3)[C@]3(O)C[C@H](OC(=O)[C@H](O)[C@@H](NC(=O)c4ccccc4)c4ccccc4)C(C)=C1C3(C)C)[C@]1(OC(C)=O)CO[C@@H]1C[C@@H]2O [paclitaxel] | 2.9 | 1.7 | 2.3 | 2.5 | 2.9 | 2.7 | 2.2 | 1.5 | 1.3 | 2.0 | 2.6 | 4.8 | 1.0 | 2.4 | 2.9 | 4.6 | 2.5 | 1.3 | 3.3 | 2.4 | Fold change in IC50 (IC50 [Drug + Cobicistat]/IC50 [Drug]) (NCI-H82): 2.4 fold; Fold change in IC50 (IC50 [Drug + Cobicistat]/IC50 [Drug]) (RT4): 3.7 fold; Fold change in IC50 (IC50 [Drug + Cobicistat]/IC50 [Drug]) (SJCRH30): 1.6 fold; Fold change in IC50 (IC50 [Drug + Cobicistat]/IC50 [Drug]) (SK-N-FI): 2.5 fold; Fold change in IC50 (IC50 [Drug + Cobicistat]/IC50 [Drug]) (SNU-C2B): 3.0 fold; Fold change in IC50 (IC50 [Drug + Cobicistat]/IC50 [Drug]) (SW480): 1.9 fold; Fold change in IC50 (IC50 [Drug + Cobicistat]/IC50 [Drug]) (SW48): 1.4 fold; Fold change in IC50 (IC50 [Drug + Cobicistat]/IC50 [Drug]) (SW620): 1.8 fold; Fold change in IC50 (IC50 [Drug + Cobicistat]/IC50 [Drug]) (U-87 MG): 2.2 fold; Fold change in IC50 (IC50 [Drug + Cobicistat]/IC50 [Drug]) (VA-ES-BJ): 2.8 fold |
| CC[C@]1(O)C[C@@H]2CN(CCc3c([nH]c4ccccc34)[C@@](C(=O)OC)(c3cc4c(cc3OC)N(C)[C@H]3[C@@](O)(C(=O)OC)[C@H](OC(C)=O)[C@]5(CC)C=CCN6CC[C@]43[C@@H]65)C2)C1 [vinblastine] | 2.5 | 3.0 | 3.4 | 3.8 | 3.9 | 3.0 | 5.6 | 2.7 | 1.9 | 2.8 | 3.3 | 5.4 | 2.0 | 2.3 | 4.2 | 4.4 | 4.0 | 1.9 | 5.3 | 2.8 | Fold change in IC50 (IC50 [Drug + Cobicistat]/IC50 [Drug]) (NCI-H82): 3.5 fold; Fold change in IC50 (IC50 [Drug + Cobicistat]/IC50 [Drug]) (RT4): 4.9 fold; Fold change in IC50 (IC50 [Drug + Cobicistat]/IC50 [Drug]) (SJCRH30): 3.8 fold; Fold change in IC50 (IC50 [Drug + Cobicistat]/IC50 [Drug]) (SK-N-FI): 4.5 fold; Fold change in IC50 (IC50 [Drug + Cobicistat]/IC50 [Drug]) (SNU-C2B): 4.5 fold; Fold change in IC50 (IC50 [Drug + Cobicistat]/IC50 [Drug]) (SW480): 3.3 fold; Fold change in IC50 (IC50 [Drug + Cobicistat]/IC50 [Drug]) (SW48): 2.5 fold; Fold change in IC50 (IC50 [Drug + Cobicistat]/IC50 [Drug]) (SW620): 2.7 fold; Fold change in IC50 (IC50 [Drug + Cobicistat]/IC50 [Drug]) (U-87 MG): 2.6 fold; Fold change in IC50 (IC50 [Drug + Cobicistat]/IC50 [Drug]) (VA-ES-BJ): 4.3 fold |
| CC[C@]1(O)C[C@H]2CN(CCc3c([nH]c4ccccc34)[C@@](C(=O)OC)(c3cc4c(cc3OC)N(C=O)[C@H]3[C@@](O)(C(=O)OC)[C@H](OC(C)=O)[C@]5(CC)C=CCN6CC[C@]43[C@@H]65)C2)C1 [vincristine] | 3.5 | 3.3 | 4.4 | 3.4 | 4.7 | 3.0 | 3.1 | 3.2 | 2.7 | 2.6 | 3.6 | 3.8 | 1.4 | 2.1 | 3.6 | 3.7 | 3.6 | 1.6 | 4.8 | 3.8 | Fold change in IC50 (IC50 [Drug + Cobicistat]/IC50 [Drug]) (NCI-H82): 3.1 fold; Fold change in IC50 (IC50 [Drug + Cobicistat]/IC50 [Drug]) (RT4): 4.0 fold; Fold change in IC50 (IC50 [Drug + Cobicistat]/IC50 [Drug]) (SJCRH30): 3.5 fold; Fold change in IC50 (IC50 [Drug + Cobicistat]/IC50 [Drug]) (SK-N-FI): 2.7 fold; Fold change in IC50 (IC50 [Drug + Cobicistat]/IC50 [Drug]) (SNU-C2B): 2.4 fold; Fold change in IC50 (IC50 [Drug + Cobicistat]/IC50 [Drug]) (SW480): 3.3 fold; Fold change in IC50 (IC50 [Drug + Cobicistat]/IC50 [Drug]) (SW48): 2.7 fold; Fold change in IC50 (IC50 [Drug + Cobicistat]/IC50 [Drug]) (SW620): 3.0 fold; Fold change in IC50 (IC50 [Drug + Cobicistat]/IC50 [Drug]) (U-87 MG): 3.1 fold; Fold change in IC50 (IC50 [Drug + Cobicistat]/IC50 [Drug]) (VA-ES-BJ): 5.4 fold |

Source: patent publication US20180036289A1 (Gilead Sciences, Inc., priority 2016, published 2018)
